In one assay the test system is AD-transgenic mice. Conditions: intranasally-active and orally active (Schrott et al., 2015); cited from earlier work.
Another assay concerns the target T1, PKC-ε (Homo sapiens, UniProt Q02156).
T1 sequence (Q02156 1-737): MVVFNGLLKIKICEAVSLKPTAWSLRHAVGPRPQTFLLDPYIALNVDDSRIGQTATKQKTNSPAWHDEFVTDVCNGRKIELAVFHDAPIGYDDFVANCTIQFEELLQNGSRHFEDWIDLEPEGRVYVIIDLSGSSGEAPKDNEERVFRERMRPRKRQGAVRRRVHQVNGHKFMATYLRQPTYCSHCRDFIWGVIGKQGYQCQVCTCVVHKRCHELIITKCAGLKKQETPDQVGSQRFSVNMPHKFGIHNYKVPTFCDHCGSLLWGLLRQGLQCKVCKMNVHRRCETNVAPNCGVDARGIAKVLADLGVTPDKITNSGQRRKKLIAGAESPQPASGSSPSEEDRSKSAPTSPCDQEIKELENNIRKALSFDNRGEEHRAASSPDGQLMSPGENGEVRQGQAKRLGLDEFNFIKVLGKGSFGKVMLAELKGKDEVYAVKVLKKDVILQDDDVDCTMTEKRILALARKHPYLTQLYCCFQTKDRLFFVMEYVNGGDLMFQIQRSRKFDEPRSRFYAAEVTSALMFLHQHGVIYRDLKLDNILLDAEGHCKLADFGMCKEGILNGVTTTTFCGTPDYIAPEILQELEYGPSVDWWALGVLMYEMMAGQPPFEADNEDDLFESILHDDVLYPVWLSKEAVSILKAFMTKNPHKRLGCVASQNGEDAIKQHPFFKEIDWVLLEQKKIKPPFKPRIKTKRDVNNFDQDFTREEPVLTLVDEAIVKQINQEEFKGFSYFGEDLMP
Conditions: in vitro studies (Yi et al., 2012); cited from earlier work.

For a further assay, the system named is α-secretase. As to the kind of experiment: HEK-293e cell model for APP processing: sAPP-α release by alkaline phosphatase absorbance at 620 nm (Earth). Conditions: for release of sAPP-α (increase in absorbance at 620 nm): HEK-293e cells stimulated for 24 h at 10^−8M, n=3. It is filed as cell-based, human. As for the experimental part:
The HEK-293e cell line was optimized for studying α-secretase in vitro.
HEK-293e cells are grown to confluency in T75 dishes in DMEM (Dulbecco's Modified Eagle Medium) and 10% FCS (Fetal Calf Serum) with 2 mM L-glutamine and pen-strepamphotericin. Supplements are needed to maintain plasmid expression: (1) Hygromycin stock solution=100× solution=4 mg/mL, final concentration=40 μg/mL (50 mg/12.5 mL makes 4 mg/mL); (2) Puromycin stock solution=100× solution=30 μg/mL stock, final concentration=0.3 μg/mL. Wait for 24-48 hours. All studies used phenol Red Free DMEM medium with 2% FCS. This must be heated to 65° C. for 30 minutes to inactivate endogenous alkaline phosphatase and cooled prior to making up test solutions.
For test solutions, remove 10% FCS growth medium and replace with 1 mL phenol red free DMEM medium+2% FCS per tube (various drug concentrations and control), and freeze cells in cryotubes. Thaw cryotubes and then: (1) Incubate cells at 37° C. for different time points; (2) Centrifuge tube at 1×g for 5 minutes and refreeze tubes to isolate culture supernatants; (3) Thaw tubes and transfer supernatants to new tube: (4) Make up substrate—Phos Blue (KPL Cat #50-88-00) according to manufacturer's instructions; (5) Transfer 100 µL of each sample and add 100 μL of substrate to 96 well plates; (6) Read immediately—record absorbance at 620 nm; and (7) Reacts quickly so record absorbance every 15 minutes for 60 minutes.
After freezing Bryosomes™, HEK-293e cells and cell culture media at −80 °C and thawing after 1, 3, 6 and 16 hours, the samples were analyzed for α-secretase production (FIG. 3). […] Thus, the concentration of 10^−8 M Bryosomes™ after mixing was targeted for the Space mission.

Molecules are shown by their SMILES.

Turning to `CCC/C=C/C=C/C(=O)O[C@H]1/C(=C/C(=O)OC)C[C@H]2C[C@H]([C@@H](C)O)OC(=O)C[C@H](O)C[C@@H]3C[C@H](OC(C)=O)C(C)(C)[C@](O)(C[C@@H]4C/C(=C/C(=O)OC)C[C@H](/C=C/C(C)(C)[C@]1(O)O2)O4)O3` [Bryostatin-1], the cognitive performance result in the assay on AD-transgenic mice was “rapidly restores cognitive performance”. For the same molecule, on PKC-ε, the “activation of PKC-ε isoform” value is recorded as “activate”. For the same molecule, the results for the “release of sAPP-α (increase in absorbance at 620 nm)” value in the assay on α-secretase and in the assay with α-secretase (listed as Bryostatin-I) were “significantly increased” and “strongly induces”, respectively. The “release of sAPP-α” value in the assay on α-secretase (HEK-293e cells, concentrations lower than 10^−8M) is listed as “do not affect release”.

The record behind these values is US20240252437A1, “Methods For and Products From Encapsulation of Drugs in Nanoparticles in a Microgravity Environment” (Aphios Corporation, priority 2021, published 2024).
